Non-standard residues stand in square brackets, D forms with d. Residues, ends and D or L forms follow the SMILES beside them. *: point of attachment. Sta = CC(C)C[C@H](N)[C@@H](O)CC(=O)O; Isovaleryl = CC(C)CC(=O)*

For test [1], the system named is solubilized endothelin converting enzyme (P3 from rat lung). Description: Endothelin converting enzyme activity of solubilized enzyme with protease inhibitors. As to conditions: at 40 mM; solubilized ECE (P3 from rat lung). The test is classed as biochemical. The procedure: (§1) Rat lung plasma membranes were prepared and assayed for endothelin converting enzyme activity as previously described (Biochem. Biophys. Res. Commun. 171 1291 (1990)).
The enzyme has an apparent molecular mass of 90 KD as estimated by SDS-PAGE or gel filtration and appears to be a single peptide protein. […] The enzyme may exist as isozymes with pIs at 6.2 and 6.3. […] The endothelin converting enzyme activity in active Mono Q fractions was inhibited by pepstatin A with an IC50 of 5 nM. The-endothelin converting enzyme activity of solubilized endothelin converting enzyme (P3 from rat lung) is not inhibited at 40 mM by TLCK, aprotinin, PMSF, E-64, bestatin, phosphoramidon or thiorphan. The endothelin converting enzyme activity of active Mono Q fractions was stimulated by divalent metal cations in the order of Mn^+2 ≥Zn^+2 >Ca^+2 >Mg^+2 ≥Ba^+2 =Co^+2.

Test [2] deals with endothelin converting enzyme (active Mono Q fractions of rat lung plasma membranes). Description: Endothelin converting enzyme activity in active Mono Q fractions. The test is classed as biochemical. As to conditions: read-out: IC50 for inhibition of endothelin converting enzyme activity. The procedure: as §1
Rat lung plasma membranes (400 mg) were solubilized by stirring at 4° C. for 45 minutes in 50 ml of 20 mM Tris-HCl, pH 7.7 containing 2 mM dithiothreitol and 46 mM NOG (Buffer C). The unsolubilized materials were removed by centrifugation at 60,000×g for 30 minutes. Solubilized materials were injected onto a Mono Q HR 10/10 column (Pharmacia) and eluted with concentration gradients of 0-1M NaCl in 240 ml of Buffer C at 4 ml/minute. (Endothelin converting enzyme active fractions were eluted from 0.07 to 0.14 M NaCl). Absorbance at 280 nm was monitored by a LKB 2150 UVICORD SD monitor. Fractions were analyzed for endothelin converting enzyme activity and by SDS-PAGE. Protein content was determined by the Bio-Rad Protein Assay kit.
The enzyme has an apparent molecular mass of 90 KD as estimated by SDS-PAGE or gel filtration and appears to be a single peptide protein. […] The enzyme may exist as isozymes with pIs at 6.2 and 6.3. […] The endothelin converting enzyme activity in active Mono Q fractions was inhibited by pepstatin A with an IC50 of 5 nM. […]

In the case of `CC(C)C[C@H](NC(=O)[C@H]1O[C@@H]1C(=O)O)C(=O)NCCCCN=C(N)N` [Example E-64, E-64], the “inhibition of endothelin converting enzyme activity” value (from here on “inhibition”) in test [1] is reported as “not inhibited”.

For the compound `O=S(=O)(F)Cc1ccccc1` [PMSF], in test [1], the “inhibition” value was “not inhibited”.

Take `Cc1ccc(S(=O)(=O)NC(CCCCN)C(=O)CCl)cc1` (centres unmarked) [TLCK]: the “inhibition” value in test [1] is on record as “not inhibited”.

As to `CC(C)C[C@H](NC(=O)[C@@H](O)[C@H](N)Cc1ccccc1)C(=O)O` [bestatin], in test [1], the “inhibition” value is given as “not inhibited”.

As a reminder, the IC50 is the concentration that gives 50% inhibition. Take `CC(C)CC(=O)N[C@H](C(=O)N[C@H](C(=O)N[C@@H](CC(C)C)[C@@H](O)CC(=O)N[C@@H](C)C(=O)N[C@@H](CC(C)C)[C@@H](O)CC(=O)O)C(C)C)C(C)C` [pepstatin A] (Isovaleryl-VV[Sta]A[Sta]-OH): the IC50 in test [2] stood at 5 nM.

For `CC(C)C[C@H](NP(=O)(O)O[C@@H]1O[C@@H](C)[C@H](O)[C@@H](O)[C@H]1O)C(=O)N[C@@H](Cc1c[nH]c2ccccc12)C(=O)O` [phosphoramidon], the “inhibition” value in test [1] is “not inhibited”.

For `O=C(O)CNC(=O)C(CS)Cc1ccccc1` (centres unmarked) [thiorphan], in test [1], the “inhibition” value is “not inhibited”.

As for aprotinin, the “inhibition” value in test [1] is on record as “not inhibited”.

For the origin of these results see patent US5338726A, “Endothelin converting enzyme inhibitors” (Abbott Laboratories, priority 1992, dated 1994).
